Converted amounts (≈) assume the structure as drawn.
What was measured:
Assay type in all cases: functional
[1] = tested on: Mycobacterium tuberculosis; test: Antimycobacterial activity against pyrazinamide-resistant Mycobacterium tuberculosis H37Rv ATCC 35828 after 7 days by microplate Alamar blue assay; conditions: H37Rv ATCC 35828, 168 h
[2] = tested on: Mycobacterium tuberculosis; test: Antimycobacterial activity against Ethionamide-resistant Mycobacterium tuberculosis H37Rv ATCC 35830 after 7 days by microplate Alamar blue assay; conditions: H37Rv ATCC 35830, 168 h
[3] = tested on: Mycobacterium tuberculosis; test: Antimycobacterial activity against isoniazid, rifampin, ethambutol, ofloxacin-resistant Mycobacterium tuberculosis after 7 days by microplate Alamar blue assay; conditions: 168 h
[4] = tested on: Mycobacterium tuberculosis; test: Antimycobacterial activity against isoniazid, rifampin, streptomycin, ofloxacin-resistant Mycobacterium tuberculosis after 7 days by microplate Alamar blue assay; conditions: 168 h
[5] = tested on: Mycobacterium tuberculosis; test: Antimycobacterial activity against isoniazid, rifampin, ethambutol, streptomycin, ofloxacin-resistant Mycobacterium tuberculosis after 7 days by microplate Alamar blue assay; conditions: 168 h
[6] = tested on: Mycobacterium tuberculosis; test: Antimycobacterial activity against isoniazid, rifampin, ethambutol-resistant Mycobacterium tuberculosis after 7 days by microplate Alamar blue assay; conditions: 168 h
[7] = tested on: Mycobacterium tuberculosis; test: Antimycobacterial activity against isoniazid, rifampin, ethambutol, streptomycin-resistant Mycobacterium tuberculosis after 7 days by microplate Alamar blue assay; conditions: 168 h
[8] = tested on: Mycobacterium tuberculosis; test: Antimycobacterial activity against isoniazid, rifampin-resistant Mycobacterium tuberculosis after 7 days by microplate Alamar blue assay; conditions: 168 h
[9] = tested on: Mycobacterium tuberculosis; test: Antimycobacterial activity against isoniazid, rifampin, streptomycin-resistant Mycobacterium tuberculosis after 7 days by microplate Alamar blue assay; conditions: 168 h

C[n+]1cc2c(cn3c4ccccc4ccc23)c2ccccc21.[I-]
MIC [1]: 6.2 µg/mL
MIC [2]: 6.2 µg/mL

CN1Cc2c(cn3c2ccc2ccccc23)-c2ccccc21
MIC [1]: 3.1 µg/mL (≈ 10.9 µM)
MIC [2]: 6.2 µg/mL (≈ 21.8 µM)

CC[C@@H](CO)NCCN[C@@H](CC)CO [ETHAMBUTOL]
MIC [3]: ≥ 8 µg/mL
MIC [4]: ≤ 2 µg/mL
MIC [5]: ≥ 8 µg/mL
MIC [6]: ≥ 8 µg/mL
MIC [7]: ≥ 8 µg/mL
MIC [8]: ≤ 2 µg/mL
MIC [9]: ≤ 2 µg/mL

NNC(=O)c1ccncc1 [ISONIAZID]
MIC [3]: ≥ 2 µg/mL
MIC [4]: ≥ 2 µg/mL
MIC [5]: ≥ 2 µg/mL
MIC [6]: ≥ 2 µg/mL
MIC [7]: ≥ 2 µg/mL
MIC [8]: ≥ 2 µg/mL
MIC [9]: ≥ 2 µg/mL

CC1COc2c(N3CCN(C)CC3)c(F)cc3c(=O)c(C(=O)O)cn1c23 (stereo unspecified) [OFLOXACIN]
MIC [3]: ≥ 4 µg/mL
MIC [4]: ≥ 4 µg/mL
MIC [5]: ≥ 4 µg/mL
MIC [6]: ≤ 2 µg/mL
MIC [7]: ≤ 2 µg/mL
MIC [8]: ≤ 2 µg/mL
MIC [9]: ≤ 2 µg/mL

CO[C@H]1/C=C/O[C@@]2(C)Oc3c(C)c(O)c4c(O)c(c(/C=N/N5CCN(C)CC5)c(O)c4c3C2=O)NC(=O)/C(C)=C\C=C\[C@H](C)[C@H](O)[C@@H](C)[C@@H](O)[C@@H](C)[C@H](OC(C)=O)[C@@H]1C [RIFAMPIN]
MIC [3]: ≥ 2 µg/mL
MIC [4]: ≥ 2 µg/mL
MIC [5]: ≥ 2 µg/mL
MIC [6]: ≥ 2 µg/mL
MIC [7]: ≥ 2 µg/mL
MIC [8]: ≥ 2 µg/mL
MIC [9]: ≥ 2 µg/mL

CN[C@@H]1[C@H](O[C@H]2[C@H](O[C@H]3[C@H](O)[C@@H](O)[C@H](N=C(N)N)[C@@H](O)[C@@H]3N=C(N)N)O[C@@H](C)[C@]2(O)C=O)O[C@@H](CO)[C@H](O)[C@H]1O [STREPTOMYCIN]
MIC [3]: ≤ 2 µg/mL
MIC [4]: ≥ 8 µg/mL
MIC [5]: ≥ 8 µg/mL
MIC [6]: ≤ 2 µg/mL
MIC [7]: ≥ 8 µg/mL
MIC [8]: ≤ 2 µg/mL
MIC [9]: ≥ 8 µg/mL

C/C=C/C1=CC=C/C(=C2\C(=O)CNC2=O)O1 [VERMELHOTIN]
MIC [1]: 6.2 µg/mL (≈ 28.5 µM)
MIC [2]: 3.1 µg/mL (≈ 14.3 µM)

From ChEMBL document CHEMBL3352707, “Antimycobacterial activity of natural products and synthetic agents: pyrrolodiquinolines and vermelhotin as anti-tubercular leads against clinical multidrug resistant isolates of Mycobacterium tuberculosis” (Eur J Med Chem, 2015)
